The subject of the test is HBV rcDNA. The experiment in a line: HepDE19 assay with bDNA quantitation of HBV rcDNA. It is filed as cell-based, hepatitis B virus (HBV). The procedure: HepDE19 assay with bDNA quantitation of HBV rcDNA:
HepDE19 (50,000 cells/well) were plated in 96-well collagen-coated tissue-culture treated microtiter plates in DMEM/F12 medium supplemented with 10% fetal bovine serum, 1% penicillin-streptomycin and 1 μg/mL tetracycline and incubated in a humidified incubator at 37° C. and 5% CO2 overnight. Next day, the cells were switched to fresh medium without tetracycline and incubated for 4 hours at 37° C. and 5% CO2. […] The final DMSO concentration in the assay was 0.5%. The plates were incubated for 7 days in a humidified incubator at 37° C. and 5% CO2. Following a 7 day-incubation, the level of rcDNA present in the inhibitor-treated wells was measured using a Quantigene 2.0 bDNA assay kit (Affymetrix, Santa Clara, CA) with HBV specific custom probe set and manufacturers instructions. Concurrently, the effect of compounds on cell viability was assessed using replicate plates, plated at a density of 5,000 cells/well and incubated for 4 days, to determine the ATP content as a measure of cell viability using the cell-titer glo reagent (CTG; Promega Corporation, Madison, WI) as per manufacturer's instructions.

Setting [1] is: Hepatitis B virus, HepDE19, 168 h, HepDE19 cells, 7 day incubation, rcDNA measured by Quantigene 2.0 bDNA assay, top concentration 25 μM, read-out: DE-19bDNA EC50.
Setting [2] is: HepDE19 cells, 7 day incubation, rcDNA measured by Quantigene 2.0 bDNA assay, top concentration 25 μM, read-out: DE-19bDNA EC50.
Setting [3] is: read-out: DE-19bDNA EC50, HepDE19 cells, 7 day incubation, rcDNA measured by Quantigene 2.0 bDNA assay, top concentration 25 μM.

EC50 data for 22 molecules are collected here from patent publication US20230295115A1, “SUBSTITUTED ISOQUINOLINYLMETHYL AMIDES, ANALOGUES THEREOF, AND METHODS USING SAME” (priority 2020, published 2023).

Like-named read-outs stand apart in the source and are kept apart here.

For the molecule `CC(c1c[nH]c(=O)c2cc(F)c(F)cc12)N(C)C(=O)c1cc2c(F)c(F)ccc2[nH]1` (racemic) [Compound 29, N-(1-(6,7-Difluoro-1-oxo-1,2-dihydroisoquinolin-4-yl)ethyl)-4,5-difluoro-N-methyl-1H-indole-2-carboxamide], the EC50 under setting [1] worked out at 0.04 µM. For `CC(c1c[nH]c(=O)c2cc(F)c(F)cc12)N(C)C(=O)Cc1cc2ccccc2[nH]1` (racemic) [Compound 59, N-(1-(6,7-Difluoro-1-oxo-1,2-dihydroisoquinolin-4-yl)ethyl)-2-(1H-indol-2-yl)-N-methylacetamide], the EC50 (Hepatitis B virus, HepDE19, 168 h, read-out: DE-19bDNA EC50 (μM), HepDE19 cells, 7 day incubation, rcDNA measured by Quantigene 2.0 bDNA assay, top concentration 25 μM) was 0.91 µM. On to `CC(c1c[nH]c(=O)c2cc(F)c(F)cc12)N(C)C(=O)c1[nH]c2ccccc2c1Cl` (racemic) [Compound 60, 3-Chloro-N-(1-(6,7-difluoro-1-oxo-1,2-dihydroisoquinolin-4-yl)ethyl)-N-methyl-1H-indole-2-carboxamide], for which, under setting [1], the EC50 was determined as 0.8 µM. Still for that read-out and setting: to `CC(C)CN(C(=O)c1cc2ccccn2c1)C(C)c1c[nH]c(=O)c2cc(F)c(F)cc12` (racemic) [Compound 116, N-(1-(6,7-Difluoro-1-oxo-1,2-dihydroisoquinolin-4-yl)ethyl)-N-isobutylindolizine-2-carboxamide] belongs 0.08 µM; to `CC(C)CN(C(=O)c1ccc(C(F)(F)F)c(F)c1)C(C)c1c[nH]c(=O)c2cc(F)c(F)cc12` (racemic) [Compound 117, N-(1-(6,7-Difluoro-1-oxo-1,2-dihydroisoquinolin-4-yl)ethyl)-3-fluoro-N-isobutyl-4-(trifluoromethyl)benzamide], 0.24 µM; to `CC(C)CN(C(=O)c1ccc(C(F)(F)F)c(F)c1)C(C)c1c[nH]c(=O)c2c(F)c(F)ccc12` (racemic) [Compound 118, N-(1-(7,8-Difluoro-1-oxo-1,2-dihydroisoquinolin-4-yl)ethyl)-3-fluoro-N-isobutyl-4-(trifluoromethyl)benzamide], 2.23 µM.

With `CC(c1c[nH]c(=O)c2cc(F)c(F)cc12)N(C)C(=O)C(=O)NC1CC1` (racemic) [Compound 143, N1-Cyclopropyl-N2-(1-(6,7-difluoro-1-oxo-1,2-dihydroisoquinolin-4-yl)ethyl)-N2-methyloxalamide], under setting [1], the EC50 was at least 25 µM.

Regarding `CC(c1c[nH]c(=O)c2cc(F)c(F)cc12)N(C)C(=O)C(=O)Nc1ccc(F)c(Cl)c1` (racemic) [Compound 144, N1-(3-Chloro-4-fluorophenyl)-N2-(1-(6,7-difluoro-1-oxo-1,2-dihydroisoquinolin-4-yl)ethyl)-N2-methyloxalamide], the EC50 under setting [1] was found to be 1.44 µM. For `CC(c1c[nH]c(=O)c2cc(F)c(F)cc12)N(C)C(=O)c1cc2ccccc2[nH]1` (single isomer, unassigned) [Compound 1, N-(1-(6,7-Difluoro-1-oxo-1,2-dihydroisoquinolin-4-yl)ethyl)-N-methyl-1H-indole-2-carboxamide], the EC50 under setting [2] amounted to 2.5 µM. Consider `CC(c1c[nH]c(=O)c2cc(F)c(F)cc12)N(C)C(=O)c1cc2ccccc2[nH]1` (single isomer, unassigned) [Compound 2, N-(1-(6,7-Difluoro-1-oxo-1,2-dihydroisoquinolin-4-yl)ethyl)-N-methyl-1H-indole-2-carboxamide], for which the EC50 under setting [2] was 0.02 µM. The same measure, in the same setting: to `CC(C)CN(C(=O)c1cc2ccccc2[nH]1)C(C)c1c[nH]c(=O)c2cc(F)c(F)cc12` (single isomer, unassigned) [Compound 3, N-(1-(6,7-Difluoro-1-oxo-1,2-dihydroisoquinolin-4-yl)ethyl)-N-isobutyl-1H-indole-2-carboxamide] belongs 0.67 µM; to `CC(C)CN(C(=O)c1cc2ccccc2[nH]1)C(C)c1c[nH]c(=O)c2cc(F)c(F)cc12` (single isomer, unassigned) [Compound 4, N-(1-(6,7-Difluoro-1-oxo-1,2-dihydroisoquinolin-4-yl)ethyl)-N-isobutyl-1H-indole-2-carboxamide], 0.01 µM; to `CCN(C(=O)c1cc2ccccc2[nH]1)C(C)c1c[nH]c(=O)c2cc(F)c(F)cc12` (single isomer, unassigned) [Compound 5, N-(1-(6,7-Difluoro-1-oxo-1,2-dihydroisoquinolin-4-yl)ethyl)-N-ethyl-1H-indole-2-carboxamide], 1.7 µM. In the case of `CCN(C(=O)c1cc2ccccc2[nH]1)C(C)c1c[nH]c(=O)c2cc(F)c(F)cc12` (single isomer, unassigned) [Compound 6, N-(1-(6,7-Difluoro-1-oxo-1,2-dihydroisoquinolin-4-yl)ethyl)-N-ethyl-1H-indole-2-carboxamide], the EC50 under setting [2] came to 0.01 µM. For `CC(c1c[nH]c(=O)c2cc(F)c(F)cc12)N(C)C(=O)c1cc2c(F)cccc2[nH]1` (single isomer, unassigned) [Compound 7, N-(1-(6,7-Difluoro-1-oxo-1,2-dihydroisoquinolin-4-yl)ethyl)-4-fluoro-N-methyl-1H-indole-2-carboxamide], under setting [2], the EC50 was 1.7 µM. Still for that read-out and setting: the value for `CC(c1c[nH]c(=O)c2cc(F)c(F)cc12)N(C)C(=O)c1cc2c(F)cccc2[nH]1` (single isomer, unassigned) [Compound 8, N-(1-(6,7-Difluoro-1-oxo-1,2-dihydroisoquinolin-4-yl)ethyl)-4-fluoro-N-methyl-1H-indole-2-carboxamide] was 0.02 µM. Take `CC(c1c[nH]c(=O)c2cc(F)c(F)cc12)N(C)C(=O)c1cc2cc(F)ccc2[nH]1` (single isomer, unassigned) [Compound 9, N-(1-(6,7-Difluoro-1-oxo-1,2-dihydroisoquinolin-4-yl)ethyl)-5-fluoro-N-methyl-1H-indole-2-carboxamide]: under setting [3], the EC50 was determined as 1.6 µM.

Take `CC(c1c[nH]c(=O)c2cc(F)c(F)cc12)N(C)C(=O)c1cc2cc(F)ccc2[nH]1` (single isomer, unassigned) [Compound 10, N-(1-(6,7-Difluoro-1-oxo-1,2-dihydroisoquinolin-4-yl)ethyl)-5-fluoro-N-methyl-1H-indole-2-carboxamide]: the EC50 under setting [3] was 0.02 µM.

`CC(c1c[nH]c(=O)c2cc(F)c(F)cc12)N(C)C(=O)c1cc2ccc(F)cc2[nH]1` (single isomer, unassigned) [Compound 11, N-(1-(6,7-Difluoro-1-oxo-1,2-dihydroisoquinolin-4-yl)ethyl)-6-fluoro-N-methyl-1H-indole-2-carboxamide]: the EC50 under setting [2] was determined as 1.2 µM. The same measure, in the same setting: the value for `CC(c1c[nH]c(=O)c2cc(F)c(F)cc12)N(C)C(=O)c1cc2ccc(F)cc2[nH]1` (single isomer, unassigned) [Compound 12, N-(1-(6,7-Difluoro-1-oxo-1,2-dihydroisoquinolin-4-yl)ethyl)-6-fluoro-N-methyl-1H-indole-2-carboxamide] was 0.02 µM; that for `CC(c1c[nH]c(=O)c2cc(F)c(F)cc12)N(C)C(=O)c1cc2cccc(F)c2[nH]1` (single isomer, unassigned) [Compound 13, N-(1-(6,7-Difluoro-1-oxo-1,2-dihydroisoquinolin-4-yl)ethyl)-7-fluoro-N-methyl-1H-indole-2-carboxamide] was 3.4 µM; that for `CC(c1c[nH]c(=O)c2cc(F)c(F)cc12)N(C)C(=O)c1cc2cccc(F)c2[nH]1` (single isomer, unassigned) [Compound 14, N-(1-(6,7-Difluoro-1-oxo-1,2-dihydroisoquinolin-4-yl)ethyl)-7-fluoro-N-methyl-1H-indole-2-carboxamide] was 0.02 µM.
